In patent publication US20240010726A1, “LFA-1 SIGNALLING MEDIATOR FOR USE IN CANCER THERAPY” (Universität Basel, priority 2020, published 2024):

Tests used:
human EM CD8 T cells = assay: Metabolic flux analysis, glycolytic switch of EM CD8 T cells; type: cell-based
Method: FIG. 2: Extracellular magnesium promotes memory-specific activation via LFA-1. Glycolytic switch of human EM CD8 T cells (a) and naïve CD8 T cells (b) subsets upon injection of anti-CD3 Ab only, or anti-CD3 and anti-CD28 Ab, was assessed by metabolic flux analysis in medium containing either 1.2 mM Mg^2+, 0 mM Mg^2+, or medium which was reconstituted from 0 mM to 1.2 mM Mg^2+ immediately prior to activation (0→1.2 mM Mg^2+). (a) Results for human effector memory (EM) and (b) for human naïve CD8 T cells. Glycolytic switch was quantified by subtracting […] measurements. (c) Flow cytometric analysis of surface activation markers on human EM CD8 T cells 24 hours after activation by plate-bound anti-CD3 Ab and soluble anti-CD28 Ab, in 1.2 mM and 0 mM Mg^2+ media, respectively. (d) Abundance of inflammatory cytokines in corresponding EM CD8 T cell culture supernatants, determined by CBA. (e) CD11a (LFA-1) surface expression on human naïve and EM CD8 T cells as well PHA T cell blasts. Flow cytometry-based assessment of total LFA-1 expression assessed by mAb TS2/4 (f), closed conformation of αL by mAb HI111 (g), extended conformation of LFA-1 by mAb Kim127 (h), open head-piece conformation of LFA-1 by mAb m24 (i), phosphorylation of focal adhesion kinase (FAK) […] as well TNF expression (k)±TCR-induced activation in different extracellular Mg^2+ concentrations. (l) Flow cytometry-based assessment of LFA-1 with open-head piece conformation on human EM and naïve CD8 T cells using the open head-piece reporter mAb m24. (m) Assessment of glycolytic switch of EM CD8 T cells. (n) Assessment of glycolytic switch of naïve CD8 T cells. […] FIG. 4: […] Pooled results from n=6 healthy donors from 3 independent experiments. (b) CD69 expression of PHA T cell blasts upon activation with indicated concentrations of plate-bound anti-CD3 mAb in ±Mg^2+ containing medium. […] Cytotoxicity was quantified after adding luciferin to medium and measuring luminescent signal intensity. […] Cytotoxicity was quantified after adding luciferin to medium and measuring luminescent signal intensity. […]

LFA-1 = molecular target: T1, LFA-1 (Homo sapiens, UniProt P05107+P20701); assay: LFA-1 conformations on REP T cells co-incubated with peptide-pulsed T2 target cells; type: cell-based; details: T2 cells pulsed with 10^−8 M 9c peptide; E:T 1:1; presence vs absence of extracellular Mg^2+
T1 construct: endogenous in cells; host or cells: primary human T cells from healthy donors: PHA-induced T cell blasts, sorted EM and naive CD8 T cells, and NY-ESO-1 TCR-transduced REP T cells
Method: FIG. 3: Magnesium regulates LFA-1 mediated T cell activation and cytotoxicity as well BiTE- and CAR T-cell functionality. (a) Glycolytic switch of murine WT and LFA-1^-/- CTLs upon injection of anti-CD3/28 Ab in medium containing 1.2 mM Mg^2+ and 0 mM Mg^2+, presented as quantification of summarized data with n=4 mice. (b) Calcium flux in WT and LFA-1^-/- Jurkat T cells stimulated with anti-CD3 Ab in 1.2 mM and 0 mM Mg^2+ medium, respectively. Cells were loaded with Fluo4, and signal intensity as recorded by plate reader, was normalized to unstimulated baseline values. […] Quantified results of n=3 mice with 3 technical replicates each. […] The effector to target cell ratio was 3:1. Results are quantified of n=3 mice with 3 technical replicates each. (e) Representative CD11a (LFA-1) surface expression on human naïve and EM CD8 T cells, PHA T cell blasts and REP T cells, assessed by flow cytometry. […] The effector to target cell ratio was 1:1. Data is presented as quantified results of n=5 healthy donors (f, g, h), n=3 healthy donors with 2 technical replicates each or n=1 healthy donor with 4 technical replicates (j). […] The effector to target cell ratio was 1:1. Data is presented as quantified results of n=1 healthy donor with 4 technical replicates. […] (n) Representative histogram of CD11a expression on PHA-blasts, untransduced T cells as well anti-CD19 expressing CAR T cells. […] Pooled results of n=6 from 2 independent experiments are shown. (p) Abundance of IFNγ in cell culture supernatants corresponding to the conditions depicted in (o) at 24 hours was determined by ELISA (n=8, 3 independent experiments). (q) Tumor growth curves of mice placed on either Mg^2+-depleted diet or respective control diet and treated with either anti-PSMA CAR T cells, untransduced T cells or saline solution. Representative of n=2 independent experiments with n=6 mice per group. REP […] target cells in flat bottom 96 well-plate, if not indicated otherwise, at a 1:1 ratio (4-6×10^4 each). Optimal ratio had been titrated for each donor beforehand. […]

T1 sequence (P20701 26-1170): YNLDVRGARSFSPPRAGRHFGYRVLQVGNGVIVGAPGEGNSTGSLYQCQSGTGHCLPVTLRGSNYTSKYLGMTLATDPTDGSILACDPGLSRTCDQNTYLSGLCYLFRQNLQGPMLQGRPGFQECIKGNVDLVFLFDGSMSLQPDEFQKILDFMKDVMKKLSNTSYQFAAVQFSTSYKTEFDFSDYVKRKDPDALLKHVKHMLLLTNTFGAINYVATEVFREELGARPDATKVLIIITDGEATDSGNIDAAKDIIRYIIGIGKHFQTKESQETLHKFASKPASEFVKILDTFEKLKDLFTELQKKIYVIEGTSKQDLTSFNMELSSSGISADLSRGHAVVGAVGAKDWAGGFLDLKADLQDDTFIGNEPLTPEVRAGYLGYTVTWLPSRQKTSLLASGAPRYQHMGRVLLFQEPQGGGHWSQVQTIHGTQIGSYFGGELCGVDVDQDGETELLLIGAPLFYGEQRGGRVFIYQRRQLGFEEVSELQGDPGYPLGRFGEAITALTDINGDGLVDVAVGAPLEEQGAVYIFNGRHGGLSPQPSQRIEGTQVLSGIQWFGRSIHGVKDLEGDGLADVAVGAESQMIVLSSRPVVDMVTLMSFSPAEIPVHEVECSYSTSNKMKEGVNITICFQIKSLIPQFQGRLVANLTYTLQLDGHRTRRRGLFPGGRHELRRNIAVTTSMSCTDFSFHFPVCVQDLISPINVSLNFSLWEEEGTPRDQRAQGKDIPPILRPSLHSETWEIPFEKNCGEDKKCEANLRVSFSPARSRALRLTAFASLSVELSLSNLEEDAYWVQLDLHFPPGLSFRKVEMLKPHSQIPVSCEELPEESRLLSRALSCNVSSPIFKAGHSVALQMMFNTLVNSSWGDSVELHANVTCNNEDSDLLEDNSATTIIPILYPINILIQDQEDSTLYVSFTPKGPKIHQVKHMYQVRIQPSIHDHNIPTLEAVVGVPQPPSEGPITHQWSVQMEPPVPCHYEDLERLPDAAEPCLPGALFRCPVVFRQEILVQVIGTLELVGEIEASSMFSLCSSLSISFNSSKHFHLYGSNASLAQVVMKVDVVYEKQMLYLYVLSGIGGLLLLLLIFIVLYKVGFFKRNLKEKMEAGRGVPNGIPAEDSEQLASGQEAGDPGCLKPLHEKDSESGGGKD
T1 sequence (P05107 23-769): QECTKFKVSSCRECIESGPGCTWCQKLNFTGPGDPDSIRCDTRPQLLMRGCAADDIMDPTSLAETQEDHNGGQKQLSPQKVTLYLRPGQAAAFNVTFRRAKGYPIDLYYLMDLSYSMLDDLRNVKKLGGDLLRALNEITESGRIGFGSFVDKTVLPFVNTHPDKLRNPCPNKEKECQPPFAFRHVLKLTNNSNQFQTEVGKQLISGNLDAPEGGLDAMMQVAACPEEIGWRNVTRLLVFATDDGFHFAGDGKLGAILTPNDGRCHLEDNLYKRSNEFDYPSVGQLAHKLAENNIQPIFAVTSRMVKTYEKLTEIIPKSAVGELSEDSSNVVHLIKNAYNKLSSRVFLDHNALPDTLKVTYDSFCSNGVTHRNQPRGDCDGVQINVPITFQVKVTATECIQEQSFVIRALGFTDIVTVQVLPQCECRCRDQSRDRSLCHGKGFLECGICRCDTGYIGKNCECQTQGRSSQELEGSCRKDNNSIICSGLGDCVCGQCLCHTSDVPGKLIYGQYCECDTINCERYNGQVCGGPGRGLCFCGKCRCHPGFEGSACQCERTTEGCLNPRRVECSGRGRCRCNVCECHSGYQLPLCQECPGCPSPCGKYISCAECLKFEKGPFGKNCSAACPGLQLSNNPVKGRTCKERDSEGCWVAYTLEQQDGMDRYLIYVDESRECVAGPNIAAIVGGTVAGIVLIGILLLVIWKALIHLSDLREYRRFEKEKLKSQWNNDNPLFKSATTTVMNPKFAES

For [Mg+2] [Mg^2+, Magnesium], the “Glycolytic switch of EM CD8^+ T cells upon supra-physiologic activation” value (human EM CD8 T cells; anti-CD3/anti-CD28 Ab plus secondary cross-linking Ab, 0 mM, 1.2 mM, 0→1.2 mM Mg^2+) was “lost”, the “Glycolytic switch (ECAR) of EM CD8 T cells” value (human EM CD8 T cells; anti-CD3 or anti-CD3/anti-CD28 Ab, 0 mM vs 1.2 mM Mg^2+) was “blunted” and the “Glycolytic switch (ECAR) of EM CD8 T cells after Mg^2+ add-back” value (human EM CD8 T cells; medium reconstituted 0→1.2 mM Mg^2+ immediately prior to activation) was “fully revertible”. For the same compound, the “Extended LFA-1 conformation on REP T cells” value (LFA-1) was “significant increase of extended LFA-1”, the “Inactive LFA-1 with bent conformation on REP T cells” value (LFA-1) was “reduced abundance of inactive, bent conformation” and the “LFA-1 with open head-piece on REP T cells” value (LFA-1) was “significant increase”.
